# Assay results as given in ChEMBL document CHEMBL5113517, “Structure-Based Design, Optimization, and Evaluation of Potent Stabilized Peptide Inhibitors Disrupting MTDH and SND1 Interaction” (J Med Chem, 2022).
# Numbered stars: 1 amine (or outer) side, 2 acyl side, 3 side chain; on linkers, the order of the positions; unused ones are H or OH. Bridge positions count the residues as written; N and C are the ends. Square brackets hold non-standard residues; d marks the D form. Peptide text beside a SMILES is read from it. X1 = N[C@@H](CC(=O)[*:1])C(=O)[*:2]; Dap = NC[C@H](N)C(=O)O
# Experiment: Binding affinity to MTDH /His-SND1 (unknown origin) expressed in Escherichia coli BL21(DE3) assessed as dissociation constant by fluorescence polarization assay
# Design: species or system Homo sapiens
row,Compound,Kd
1,C[C@@H]1NC(=O)C[C@H](N)C(=O)NC[C@@H](C(=O)N[C@@H](CC(=O)O)C(=O)N[C@@H](Cc2c[nH]c3ccccc23)C(=O)N[C@@H](CC(N)=O)C(=O)N[C@@H](C)C(=O)N2CCC[C@H]2C(=O)N[C@@H](C)C(=O)N[C@@H](CCC(=O)O)C(=O)N[C@@H](CCC(=O)O)C(=O)N[C@@H](Cc2c[nH]c3ccccc23)C(=O)NCC(=O)N[C@@H](CC(N)=O)C(N)=O)NC(=O)[C@H](C)NC1=O (AA[Dap]DWNAPAEEWGN-NH2; linker N-3 via X1),0.231 µM
2,CC[C@H](C)[C@H](NC(=O)[C@H](CC(N)=O)NC(=O)[C@H](Cc1c[nH]c2ccccc12)NC(=O)[C@H](CC(=O)O)NC(=O)[C@@H]1CNC(=O)[C@@H](N)CC(=O)N[C@@H](C)C(=O)N[C@@H](C)C(=O)N1)C(=O)N[C@@H](Cc1ccc(O)cc1)C(=O)N[C@@H](C)C(=O)N[C@@H](Cc1ccc(O)cc1)C(=O)N[C@@H](CCC(=O)O)C(=O)N[C@@H](Cc1c[nH]c2ccccc12)C(=O)NCC(=O)N[C@@H](CC(N)=O)C(=O)N[C@@H](CC(=O)O)C(N)=O (AA[Dap]DWNIYAYEWGND-NH2; linker N-3 via X1),0.443 µM
3,CC[C@H](C)[C@H](NC(=O)[C@H](CC(N)=O)NC(=O)[C@H](Cc1c[nH]c2ccccc12)NC(=O)[C@H](CC(=O)O)NC(=O)[C@@H]1CNC(=O)[C@@H](N)CC(=O)N[C@@H](C)C(=O)N[C@@H](C)C(=O)N1)C(=O)N[C@@H](Cc1ccc(O)cc1)C(=O)N[C@@H](C)C(=O)N[C@@H](Cc1ccc(O)cc1)C(=O)N[C@@H](CCC(=O)O)C(=O)N[C@@H](Cc1c[nH]c2ccccc12)C(=O)NCC(=O)N[C@@H](CC(N)=O)C(=O)N[C@@H](CCC(=O)O)C(N)=O (AA[Dap]DWNIYAYEWGNE-NH2; linker N-3 via X1),0.451 µM
4,CC[C@H](C)[C@H](NC(=O)[C@H](CC(N)=O)NC(=O)[C@H](Cc1c[nH]c2ccccc12)NC(=O)[C@H](CC(=O)O)NC(=O)[C@@H]1CNC(=O)[C@@H](N)CC(=O)N[C@@H](C)C(=O)N[C@@H](C)C(=O)N1)C(=O)N[C@@H](Cc1ccc(O)cc1)C(=O)N[C@@H](C)C(=O)N[C@@H](Cc1ccc(O)cc1)C(=O)N[C@@H](CCC(=O)O)C(=O)N[C@@H](Cc1c[nH]c2ccccc12)C(=O)NCC(=O)N[C@@H](CC(N)=O)C(=O)N[C@@H](Cc1c[nH]cn1)C(N)=O (AA[Dap]DWNIYAYEWGNH-NH2; linker N-3 via X1),0.671 µM
5,C[C@H](NC(=O)[C@@H]1CCCN1C(=O)[C@H](C)NC(=O)[C@H](CC(N)=O)NC(=O)[C@H](Cc1c[nH]c2ccccc12)NC(=O)[C@@H](N)CC(=O)O)C(=O)N[C@@H](CCC(=O)O)C(=O)N[C@@H](CCC(=O)O)C(=O)N[C@@H](Cc1c[nH]c2ccccc12)C(=O)NCC(=O)N[C@@H](CC(N)=O)C(=O)O (H-DWNAPAEEWGN-OH),0.211 µM
6,CC(C)[C@H](NC(=O)[C@H](Cc1c[nH]c2ccccc12)NC(=O)[C@H](CC(N)=O)NC(=O)CNC(=O)[C@H](Cc1c[nH]c2ccccc12)NC(=O)[C@H](CCC(=O)O)NC(=O)[C@H](CCC(=O)O)NC(=O)[C@H](C)NC(=O)[C@@H]1CCCN1C(=O)[C@H](C)NC(=O)[C@H](CC(N)=O)NC(=O)[C@H](Cc1c[nH]c2ccccc12)NC(=O)[C@H](CC(=O)O)NC(=O)[C@H](CO)NC(=O)[C@@H](N)CC(N)=O)C(=O)O (H-NSDWNAPAEEWGNWV-OH),0.152 µM
7,C[C@H](NC(=O)[C@H](CO)NC(=O)[C@@H](N)CO)C(=O)N[C@@H](CC(=O)O)C(=O)N1CCC[C@H]1C(=O)N[C@@H](CC(N)=O)C(=O)N[C@@H](CO)C(=O)N[C@@H](CC(=O)O)C(=O)N[C@@H](Cc1c[nH]c2ccccc12)C(=O)N[C@@H](CC(N)=O)C(=O)N[C@@H](C)C(=O)N1CCC[C@H]1C(=O)N[C@@H](C)C(=O)N[C@@H](CCC(=O)O)C(=O)N[C@@H](CCC(=O)O)C(=O)N[C@@H](Cc1c[nH]c2ccccc12)C(=O)NCC(=O)N[C@@H](CC(N)=O)C(=O)O (H-SSADPNSDWNAPAEEWGN-OH),0.118 µM
8,CC(C)[C@H](NC(=O)[C@H](Cc1c[nH]c2ccccc12)NC(=O)[C@H](CC(N)=O)NC(=O)CNC(=O)[C@H](Cc1c[nH]c2ccccc12)NC(=O)[C@H](CCC(=O)O)NC(=O)[C@H](CCC(=O)O)NC(=O)[C@H](C)NC(=O)[C@@H]1CCCN1C(=O)[C@H](C)NC(=O)[C@H](CC(N)=O)NC(=O)[C@H](Cc1c[nH]c2ccccc12)NC(=O)[C@H](CC(=O)O)NC(=O)[C@H](CO)NC(=O)[C@H](CC(N)=O)NC(=O)[C@@H]1CCCN1C(=O)[C@H](CC(=O)O)NC(=O)[C@H](C)NC(=O)[C@H](CO)NC(=O)[C@@H](N)CO)C(=O)N[C@@H](CC(=O)O)C(=O)N[C@@H](CCC(=O)O)C(=O)O (H-SSADPNSDWNAPAEEWGNWVDE-OH),0.0624 µM
9,C[C@H](NC(=O)[C@H](CC(N)=O)NC(=O)[C@@H]1CNC(=O)[C@@H](N)CC(=O)N[C@@H](Cc2c[nH]c3ccccc23)C(=O)N[C@@H](CC(N)=O)C(=O)N1)C(=O)N[C@@H](CCC(=O)O)C(=O)N[C@@H](CCC(=O)O)C(=O)N[C@@H](Cc1c[nH]c2ccccc12)C(=O)NCC(=O)N[C@@H](CC(N)=O)C(N)=O (WN[Dap]NAEEWGN-NH2; linker N-3 via X1),0.697 µM
10,C[C@H](NC(=O)[C@H](CC(N)=O)NC(=O)[C@@H]1CNC(=O)[C@@H](N)CC(=O)N[C@@H](Cc2c[nH]c3ccccc23)C(=O)N[C@@H](CC(N)=O)C(=O)N1)C(=O)N[C@@H](Cc1ccccc1)C(=O)N[C@@H](CCC(=O)O)C(=O)N[C@@H](Cc1c[nH]c2ccccc12)C(=O)NCC(=O)N[C@@H](CC(N)=O)C(N)=O (WN[Dap]NAFEWGN-NH2; linker N-3 via X1),1.73 µM
11,C[C@H](NC(=O)[C@H](CC(N)=O)NC(=O)[C@@H]1CNC(=O)[C@@H](N)CC(=O)N[C@@H](Cc2c[nH]c3ccccc23)C(=O)N[C@@H](CC(N)=O)C(=O)N1)C(=O)N[C@@H](Cc1ccc(O)cc1)C(=O)N[C@@H](CCC(=O)O)C(=O)N[C@@H](Cc1c[nH]c2ccccc12)C(=O)NCC(=O)N[C@@H](CC(N)=O)C(N)=O (WN[Dap]NAYEWGN-NH2; linker N-3 via X1),0.932 µM
12,C[C@H](NC(=O)[C@@H]1CCCN1C(=O)[C@@H]1CNC(=O)[C@@H](N)CC(=O)N[C@@H](Cc2c[nH]c3ccccc23)C(=O)N[C@@H](CC(N)=O)C(=O)N1)C(=O)N[C@@H](CCC(=O)O)C(=O)N[C@@H](CCC(=O)O)C(=O)N[C@@H](Cc1c[nH]c2ccccc12)C(=O)NCC(=O)N[C@@H](CC(N)=O)C(N)=O (WN[Dap]PAEEWGN-NH2; linker N-3 via X1),0.584 µM
13,C[C@H](NC(=O)[C@@H]1CCCN1C(=O)[C@@H]1CNC(=O)[C@@H](N)CC(=O)N[C@@H](Cc2c[nH]c3ccccc23)C(=O)N[C@@H](CC(N)=O)C(=O)N1)C(=O)N[C@@H](Cc1ccccc1)C(=O)N[C@@H](CCC(=O)O)C(=O)N[C@@H](Cc1c[nH]c2ccccc12)C(=O)NCC(=O)N[C@@H](CC(N)=O)C(N)=O (WN[Dap]PAFEWGN-NH2; linker N-3 via X1),0.992 µM
14,C[C@H](NC(=O)[C@@H]1CCCN1C(=O)[C@@H]1CNC(=O)[C@@H](N)CC(=O)N[C@@H](Cc2c[nH]c3ccccc23)C(=O)N[C@@H](CC(N)=O)C(=O)N1)C(=O)N[C@@H](Cc1ccc(O)cc1)C(=O)N[C@@H](CCC(=O)O)C(=O)N[C@@H](Cc1c[nH]c2ccccc12)C(=O)NCC(=O)N[C@@H](CC(N)=O)C(N)=O (WN[Dap]PAYEWGN-NH2; linker N-3 via X1),0.585 µM
15,C[C@H](NC(=O)[C@H](Cc1ccc(O)cc1)NC(=O)[C@@H]1CNC(=O)[C@@H](N)CC(=O)N[C@@H](Cc2c[nH]c3ccccc23)C(=O)N[C@@H](CC(N)=O)C(=O)N1)C(=O)N[C@@H](Cc1ccc(O)cc1)C(=O)N[C@@H](CCC(=O)O)C(=O)N[C@@H](Cc1c[nH]c2ccccc12)C(=O)NCC(=O)N[C@@H](CC(N)=O)C(N)=O (WN[Dap]YAYEWGN-NH2; linker N-3 via X1),0.943 µM
